Measured values: patent US20160310607A1, “CELL TRANSPORT” (CUPID PEPTIDE COMPANY LIMITED, priority 2013, published 2016)
“Also recorded” adds a separate entry of the source. No end group written: not given here.

What was measured:
[1] = system: Dictyostelium cAMP-dependent Protein Kinase (DdPKA); assay: PKA-dependent aggregation of starved Dictyostelium cultures; assay type: cell-based, Dictyostelium discoideum; conditions: 10 micromolar peptide
Procedure: FIG. 6. Cupid can transport small molecule cargo into cells. Starved Dictyostelium cultures were treated with no peptide (A), cupid B peptide (B), PKI peptide (C) and Cupid B-PKI peptide (D) and analysed for aggregation.
Upon starvation Dictyostelium initiates a developmental program leading to the aggregation of free-living amoebae. Genetic research has uncovered the crucial role that cyclic adenosine monophosphate (cAMP) plays in orchestrating as an extracellular chemoattractant in the initial aggregation process through Dictyostelium cAMP-dependent Protein Kinase (DdPKA). DdPKA can be inhibited by PKI, a 20 amino acid peptide sequence derived from an inhibitor of PKA, by PKI binding directly to the catalytic unit of PKA.
By creating a Cupid B-PKI fusion protein we aimed to establish that it prevents starving Dictyostelium cells from aggregating in vivo.

[2] = system: Dictyostelium discoideum amoeba cells; assay: Permeation of FITC-labelled peptides into cultured Dictyostelium cells (fluorescence microscopy); assay type: cell-based; conditions: FITC-labelled peptide, 10 micromolar, 1 hour
Procedure: Peptides were labelled with Fluorescein isothiocyanate (FITC) using a FITC labeling kit as per instructions (Pierce, UK). When added to cell cultures the labeled peptides were visualized using a fluorescent microscope by exciting the FITC with a 488 nm spectral line, argon-ion laser (Excitation wavelength of 494 nm and an Emission wavelength of 518 nm).
AX2 wild type Dictyostelium cells were grown on SM agar plates seeded with Aerobacter aerogenes bacteria (also known as Klebsiella aerogenes) as a food source.
Cupid A ([…]) and Cupid B ([…]) were chemically synthesized labelled with FITC at the amino terminal. The peptides were added to cultured eukaryotic cells of Dictyostelium discoideum amoeba for varying amounts of time up to 2 hours. Cells were then washed and prepared for examination under a fluorescent microscope (FIG. 1). The time courses of permeation were compared to the class 3 CPP, the Antennapedia peptide, pANT which was also labelled with FITC in chemical synthesis (FIG. 2).

| Sequence | effect on aggregation of starved Dictyostelium cultures [1] | cell permeation (fluorescence microscopy) [2] | effect on aggregation of starved Dictyostelium cultures ([1]; listed as Cupid-PKI) |
| --- | --- | --- | --- |
| TTYADRASGRTGRRNAND [PKI, reference compound] | neither the Cupid B peptide nor the PKI peptide alone have any effect on aggregation; also recorded: cells aggregated into tight masses | – | – |
| RRVQIWFQNKRAKVKR [Cupid B, cell penetrating peptide from the genome of Dictyostelium discoideum] | neither the Cupid B peptide nor the PKI peptide alone have any effect on aggregation; also recorded: cells aggregated into tight masses | – | – |
| HHHHHHRRVQIWFQNKRAKVKRIDTTYADRASGRTGRRNAIHD (also: FITC label, site not given here) [Cupid B-PKI, Cupid B-PKI fusion protein with 6x Histidine, made recombinantly in E. coli; FITC-labelled for microscopy] | completely attenuating | cell permeable | failed to aggregate |
